Measurements as given in ChEMBL document CHEMBL1201862, “PubChem BioAssay data set” (2004).
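Briefly, cells in 96-well plates were exposed to five compound concentrations for 48 h, and endpoints were estimated by linear interpolation. At the GI50, growth is halved.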 Activity calls are given as the source filed them. Cut-off read from the data, not from the text of the source: active = GI50 up to about 1.1 µM and inactive = higher.

Experiments:
Assay in all cases: DTP human tumour cell line panel, 48 h
RXF 631 = system: RXF 631
KM-20L2 = system: KM-20L2
XF498 = system: XF498
DMS-114 = system: DMS-114
M19-MEL = system: M19-MEL
DLD-1 = system: DLD-1
HOP-18 = system: HOP-18
DMS-273 = system: DMS-273

Measured: GI50

COC(=O)C(CC(=O)Nc1ccc(C)cc1)C(=O)C(=O)Nc1c(C(C)C)cccc1C(C)C (configuration not stated)
inactive: RXF 631 > 100 µM | KM-20L2 > 100 µM | XF498 > 100 µM | DMS-114 > 100 µM | M19-MEL > 100 µM | DLD-1 > 100 µM

CCOC(=O)C(=O)Nc1c(C(C)C)cccc1C(C)C
inactive: RXF 631 > 100 µM | KM-20L2 > 100 µM | XF498 54.6 µM | HOP-18 > 100 µM | DMS-114 > 100 µM | DMS-273 > 100 µM | M19-MEL > 100 µM | DLD-1 > 100 µM

O=[N+]([O-])c1ccc(-c2csc(=[N+]3CCCCC3)s2)cc1
inactive: RXF 631 87.5 µM | KM-20L2 6.1 µM | XF498 19.5 µM | HOP-18 > 100 µM | DMS-114 2.13 µM | DMS-273 28.8 µM | M19-MEL 10.7 µM | DLD-1 18.3 µM

CN(C)CC1CCCC/C1=N/O (configuration not stated)
inactive: RXF 631 > 100 µM | KM-20L2 > 100 µM | HOP-18 > 100 µM | DMS-114 > 100 µM | DMS-273 > 100 µM | M19-MEL > 100 µM | DLD-1 > 100 µM

Cc1cc(C)nc(Sc2c([N+](=O)[O-])ncn2C)n1
inactive: RXF 631 > 100 µM | XF498 > 100 µM | HOP-18 20.6 µM | DMS-114 > 100 µM | DMS-273 > 100 µM | M19-MEL > 100 µM | DLD-1 > 100 µM

CC(=O)/C(=C\C1=CCCO1)C(=O)Nc1ccccc1C
inactive: RXF 631 > 100 µM | XF498 > 100 µM | HOP-18 > 100 µM | DMS-114 > 100 µM | M19-MEL > 100 µM | DLD-1 > 100 µM

[O-][S+]1c2ccccc2N=C(c2ccc3ccccc3c2)CC1c1ccccc1F (configuration not stated)
inactive: RXF 631 > 100 µM | KM-20L2 > 100 µM | XF498 > 100 µM | HOP-18 > 100 µM | DMS-114 > 100 µM | DMS-273 > 100 µM | M19-MEL > 100 µM | DLD-1 > 100 µM

O=S1(=O)CSc2ccc3ccccc3c2-c2c1ccc1ccccc21
inactive: RXF 631 > 100 µM | XF498 > 100 µM | HOP-18 > 100 µM | DMS-114 > 100 µM | DMS-273 > 100 µM | M19-MEL > 100 µM | DLD-1 > 100 µM
